Measured values published in ChEMBL document CHEMBL3608268, “Re-exploring the N-phenylpicolinamide derivatives to develop mGlu4 ligands with improved affinity and in vitro microsomal stability” (Bioorg Med Chem Lett, 2015).

What was measured:
[1] = molecular target: T1, Metabotropic glutamate receptor 4 (Homo sapiens, UniProt Q14833); test: Displacement of [3H]N-(4-chloro-3-methoxyphenyl)picolinamide from human mGlu4 receptor expressed in CHO cell membranes incubated for 30 mins by liquid scintillation counting method
T1 sequence (Q14833 whole entry): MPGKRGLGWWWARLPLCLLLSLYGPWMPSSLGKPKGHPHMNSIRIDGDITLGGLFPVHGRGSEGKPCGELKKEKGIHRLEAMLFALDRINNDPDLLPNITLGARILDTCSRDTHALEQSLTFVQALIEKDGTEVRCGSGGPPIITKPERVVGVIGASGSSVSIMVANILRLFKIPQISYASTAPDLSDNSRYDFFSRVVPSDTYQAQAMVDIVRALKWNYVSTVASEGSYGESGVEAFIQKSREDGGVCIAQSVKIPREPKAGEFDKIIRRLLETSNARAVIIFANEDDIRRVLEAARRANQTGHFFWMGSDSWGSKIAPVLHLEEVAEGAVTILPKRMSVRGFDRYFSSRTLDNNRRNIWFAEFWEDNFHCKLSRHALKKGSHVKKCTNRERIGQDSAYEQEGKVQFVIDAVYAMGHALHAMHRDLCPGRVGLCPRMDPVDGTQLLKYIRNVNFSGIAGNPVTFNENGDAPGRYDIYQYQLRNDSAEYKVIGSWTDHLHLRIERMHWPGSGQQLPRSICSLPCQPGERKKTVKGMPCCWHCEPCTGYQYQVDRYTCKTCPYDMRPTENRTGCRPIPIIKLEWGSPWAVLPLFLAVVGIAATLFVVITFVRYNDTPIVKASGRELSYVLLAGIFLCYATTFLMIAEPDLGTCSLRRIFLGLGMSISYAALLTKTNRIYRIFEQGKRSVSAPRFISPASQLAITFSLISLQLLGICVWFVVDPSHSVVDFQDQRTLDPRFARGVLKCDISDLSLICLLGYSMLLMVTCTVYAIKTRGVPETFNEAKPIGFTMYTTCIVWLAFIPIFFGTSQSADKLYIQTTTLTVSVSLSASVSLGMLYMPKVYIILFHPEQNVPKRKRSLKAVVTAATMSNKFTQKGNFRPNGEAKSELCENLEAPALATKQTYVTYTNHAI

[2] = molecular target: T1, Metabotropic glutamate receptor 4; test: Positive allosteric modulator activity at human mGlu4 receptor
Liver microsome = test: Half life in Wistar rat liver microsomes in presence of NADPH generation system by HPLC method; type: ADME
[3] = pampa
Description: Effective permeability by PAMPA method

[4] = molecular target: Metabotropic glutamate receptor 4 (Rattus norvegicus, UniProt P31423); test: Positive allosteric modulator activity at rat mGlu4 receptor
Sequence of Metabotropic glutamate receptor 4 (Rattus norvegicus, UniProt P31423) (P31423 whole entry): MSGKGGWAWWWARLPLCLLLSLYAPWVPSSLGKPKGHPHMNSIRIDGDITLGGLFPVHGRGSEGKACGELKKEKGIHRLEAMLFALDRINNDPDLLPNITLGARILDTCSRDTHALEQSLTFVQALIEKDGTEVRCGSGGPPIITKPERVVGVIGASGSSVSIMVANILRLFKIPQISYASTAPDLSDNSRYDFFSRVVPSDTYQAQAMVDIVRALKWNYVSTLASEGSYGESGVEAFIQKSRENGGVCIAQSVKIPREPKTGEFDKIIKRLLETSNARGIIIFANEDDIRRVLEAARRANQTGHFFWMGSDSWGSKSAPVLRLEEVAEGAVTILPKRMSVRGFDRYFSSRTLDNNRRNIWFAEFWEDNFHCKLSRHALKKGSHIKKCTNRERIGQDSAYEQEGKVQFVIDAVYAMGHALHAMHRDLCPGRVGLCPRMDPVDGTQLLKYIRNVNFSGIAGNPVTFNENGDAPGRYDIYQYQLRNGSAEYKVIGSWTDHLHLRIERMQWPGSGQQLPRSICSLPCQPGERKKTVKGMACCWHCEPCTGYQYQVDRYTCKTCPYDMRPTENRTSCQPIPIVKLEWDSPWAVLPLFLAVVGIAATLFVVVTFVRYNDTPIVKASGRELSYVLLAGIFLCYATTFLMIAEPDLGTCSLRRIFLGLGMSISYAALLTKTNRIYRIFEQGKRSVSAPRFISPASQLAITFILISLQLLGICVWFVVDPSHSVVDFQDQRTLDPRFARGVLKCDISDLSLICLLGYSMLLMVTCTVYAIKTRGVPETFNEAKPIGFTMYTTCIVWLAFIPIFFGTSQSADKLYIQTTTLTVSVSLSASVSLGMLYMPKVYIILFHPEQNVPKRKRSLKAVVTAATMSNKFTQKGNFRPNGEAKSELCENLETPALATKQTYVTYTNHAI

[5] = molecular target: Metabotropic glutamate receptor 5 (Homo sapiens, UniProt P41594); test: Activity at mGlu5 receptor (unknown origin) expressed in HEK293 cells by Ca2+ mobilization assay; type: functional, cell-based
Sequence of Metabotropic glutamate receptor 5 (P41594 whole entry): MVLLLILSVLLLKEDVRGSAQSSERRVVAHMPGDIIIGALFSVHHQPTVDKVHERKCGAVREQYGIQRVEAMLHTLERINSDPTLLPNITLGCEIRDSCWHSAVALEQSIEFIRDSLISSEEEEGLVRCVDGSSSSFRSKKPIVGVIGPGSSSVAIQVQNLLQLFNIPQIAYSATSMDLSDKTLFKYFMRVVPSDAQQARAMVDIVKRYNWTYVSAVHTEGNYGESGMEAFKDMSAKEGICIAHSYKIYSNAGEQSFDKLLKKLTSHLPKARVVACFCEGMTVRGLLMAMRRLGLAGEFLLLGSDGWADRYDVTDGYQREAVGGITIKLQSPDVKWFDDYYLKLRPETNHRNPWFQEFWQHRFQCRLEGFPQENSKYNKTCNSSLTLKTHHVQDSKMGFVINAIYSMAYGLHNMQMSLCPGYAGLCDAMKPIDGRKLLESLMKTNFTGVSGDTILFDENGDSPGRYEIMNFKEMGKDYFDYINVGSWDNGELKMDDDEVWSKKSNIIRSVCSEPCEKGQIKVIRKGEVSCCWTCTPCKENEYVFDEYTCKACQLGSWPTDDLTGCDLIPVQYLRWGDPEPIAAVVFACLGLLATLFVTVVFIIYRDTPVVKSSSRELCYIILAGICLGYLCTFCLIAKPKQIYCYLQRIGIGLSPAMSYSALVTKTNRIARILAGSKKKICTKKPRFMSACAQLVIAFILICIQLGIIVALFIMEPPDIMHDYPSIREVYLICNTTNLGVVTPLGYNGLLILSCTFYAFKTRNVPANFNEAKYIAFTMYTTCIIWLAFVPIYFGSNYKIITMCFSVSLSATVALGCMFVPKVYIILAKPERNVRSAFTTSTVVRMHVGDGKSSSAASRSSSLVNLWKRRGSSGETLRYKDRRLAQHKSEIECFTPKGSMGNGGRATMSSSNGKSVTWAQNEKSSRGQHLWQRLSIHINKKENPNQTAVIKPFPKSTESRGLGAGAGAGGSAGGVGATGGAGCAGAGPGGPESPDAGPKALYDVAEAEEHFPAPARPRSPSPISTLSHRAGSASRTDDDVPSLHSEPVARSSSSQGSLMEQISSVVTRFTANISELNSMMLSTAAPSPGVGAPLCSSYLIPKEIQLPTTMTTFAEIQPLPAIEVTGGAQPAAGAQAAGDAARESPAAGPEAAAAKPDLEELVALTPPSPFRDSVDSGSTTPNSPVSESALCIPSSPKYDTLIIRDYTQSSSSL

[6] = molecular target: Metabotropic glutamate receptor 2 (Homo sapiens, UniProt Q14416); test: Activity at mGlu2 receptor (unknown origin) expressed in HEK293 cells pre-treated for 15 mins before addition of EC80 concentration of reference agonist for another 15 mins by cAMP accumulation assay; type: functional, cell-based
Sequence of Metabotropic glutamate receptor 2 (Q14416 whole entry): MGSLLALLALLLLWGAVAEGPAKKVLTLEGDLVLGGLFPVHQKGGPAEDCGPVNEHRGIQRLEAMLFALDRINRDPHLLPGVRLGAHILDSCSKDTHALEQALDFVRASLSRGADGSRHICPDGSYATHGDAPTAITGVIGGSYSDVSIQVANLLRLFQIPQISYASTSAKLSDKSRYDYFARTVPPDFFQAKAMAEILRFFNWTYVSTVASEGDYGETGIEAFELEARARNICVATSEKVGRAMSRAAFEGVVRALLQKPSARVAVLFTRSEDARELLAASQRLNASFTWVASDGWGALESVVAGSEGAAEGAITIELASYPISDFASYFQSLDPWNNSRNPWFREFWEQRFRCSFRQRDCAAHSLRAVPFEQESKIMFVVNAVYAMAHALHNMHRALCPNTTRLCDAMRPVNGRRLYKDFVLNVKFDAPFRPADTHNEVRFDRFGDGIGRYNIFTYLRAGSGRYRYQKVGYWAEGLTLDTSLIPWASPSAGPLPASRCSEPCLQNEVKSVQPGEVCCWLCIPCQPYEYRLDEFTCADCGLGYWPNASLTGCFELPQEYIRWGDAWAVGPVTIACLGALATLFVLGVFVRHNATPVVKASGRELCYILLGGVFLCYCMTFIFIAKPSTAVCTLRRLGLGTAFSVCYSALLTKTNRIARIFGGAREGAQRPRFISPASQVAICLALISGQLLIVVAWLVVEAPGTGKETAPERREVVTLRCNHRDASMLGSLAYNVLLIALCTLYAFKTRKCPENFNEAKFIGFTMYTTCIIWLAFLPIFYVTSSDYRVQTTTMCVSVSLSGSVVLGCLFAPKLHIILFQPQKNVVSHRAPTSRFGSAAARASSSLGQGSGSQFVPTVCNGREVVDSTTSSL

[7] = molecular target: Metabotropic glutamate receptor 6 (Homo sapiens, UniProt O15303); test: Activity at mGlu6 receptor (unknown origin) expressed in HEK293 cells pre-treated for 15 mins before addition of EC80 concentration of reference agonist for another 15 mins by cAMP accumulation assay; type: functional, cell-based
Sequence of Metabotropic glutamate receptor 6 (O15303 whole entry): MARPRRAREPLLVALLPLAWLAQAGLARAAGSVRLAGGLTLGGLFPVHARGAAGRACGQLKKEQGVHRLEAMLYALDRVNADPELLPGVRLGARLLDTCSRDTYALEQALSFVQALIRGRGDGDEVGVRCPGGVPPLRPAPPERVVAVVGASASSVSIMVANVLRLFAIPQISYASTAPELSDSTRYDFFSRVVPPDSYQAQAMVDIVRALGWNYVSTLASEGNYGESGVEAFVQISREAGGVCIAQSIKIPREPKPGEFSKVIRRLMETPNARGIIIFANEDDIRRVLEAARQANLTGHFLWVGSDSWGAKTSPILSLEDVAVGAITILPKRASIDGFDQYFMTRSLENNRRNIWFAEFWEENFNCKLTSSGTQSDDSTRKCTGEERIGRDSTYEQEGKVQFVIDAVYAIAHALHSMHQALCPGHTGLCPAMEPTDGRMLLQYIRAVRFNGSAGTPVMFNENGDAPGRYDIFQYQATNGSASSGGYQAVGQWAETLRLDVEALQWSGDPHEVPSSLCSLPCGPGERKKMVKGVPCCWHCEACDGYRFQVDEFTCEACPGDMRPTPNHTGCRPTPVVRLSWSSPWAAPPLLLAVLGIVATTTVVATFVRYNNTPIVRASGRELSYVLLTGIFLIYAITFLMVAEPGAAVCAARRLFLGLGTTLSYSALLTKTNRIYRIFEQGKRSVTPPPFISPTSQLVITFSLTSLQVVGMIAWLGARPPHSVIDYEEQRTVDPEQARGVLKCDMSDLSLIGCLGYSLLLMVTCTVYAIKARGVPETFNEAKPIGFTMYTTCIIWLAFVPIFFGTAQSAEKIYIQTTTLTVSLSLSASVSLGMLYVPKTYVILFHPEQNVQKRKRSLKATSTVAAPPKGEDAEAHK

[8] = molecular target: Metabotropic glutamate receptor 1 (Homo sapiens, UniProt Q13255); test: Activity at mGlu1 receptor (unknown origin) expressed in HEK293 cells by Ca2+ mobilization assay; type: functional, cell-based
[9] = molecular target: Metabotropic glutamate receptor 8 (Homo sapiens, UniProt O00222); test: Activity at mGlu8 receptor (unknown origin) expressed in HEK293 cells pre-treated for 15 mins before addition of EC80 concentration of reference agonist for another 15 mins by cAMP accumulation assay; type: functional, cell-based

CSc1cccc(NC(=O)c2ccccn2)c1
IC50 [1]: 4.9 nM

c1cnc(Nc2nc3c(s2)CCCc2[nH]ncc2-3)nc1
EC50 [2]: 9 nM

COc1cc(NC(=O)c2cccc(F)n2)ccc1Cl
IC50 [1]: 7.3 nM

Cc1ccnc(Nc2nc(-c3cn[nH]c3)c(C)s2)n1
t1/2 (Liver microsome): 7 min | Peff [3]: 257 ×10⁻⁶ cm/s | EC50 [4]: 9 nM

COc1cc(NC(=O)c2ccccn2)ccc1Br
IC50 [1]: 322 nM

COc1cc(NC(=O)c2ccccn2)ccc1I
IC50 [1]: 146 nM

COc1cccc(NC(=O)c2ccccn2)c1
IC50 [1]: 13.7 nM

O=C(Nc1cccc(OC(F)F)c1)c1cccc(F)n1
IC50 [1]: 6.7 nM

COc1cc(NC(=O)c2cccc(F)n2)ccc1F
IC50 [1]: 89.2 nM

N#Cc1cccc(NC(=O)c2ccccn2)c1
IC50 [1]: 10.4 nM

N#Cc1cc(NC(=O)c2ccccn2)ccc1F
IC50 [1]: 7.4 nM

N#Cc1cc(NC(=O)c2ccccn2)ccc1Cl
IC50 [1]: 5.3 nM

N#Cc1cc(NC(=O)c2ccccn2)ccc1Br
IC50 [1]: 47 nM

N#Cc1cc(NC(=O)c2ccccn2)ccc1I
IC50 [1]: 172 nM

O=C(Nc1ccc(Cl)c(OCF)c1)c1ccccn1
t1/2 (Liver microsome): 5.8 min | Peff [3]: 272 ×10⁻⁶ cm/s | IC50 [1]: 3.2 nM

[2H]C([2H])(F)Oc1cc(NC(=O)c2ccccn2)ccc1Cl
t1/2 (Liver microsome): 7.4 min | IC50 [5]: > 30000 nM | IC50 [6]: > 30000 nM | IC50 [7]: > 30000 nM | IC50 [8]: > 30000 nM | IC50 [9]: > 30000 nM | IC50 [1]: 3.2 nM

[2H]C([2H])(F)Oc1cccc(NC(=O)c2ccccn2)c1
IC50 [1]: 3.7 nM

O=C(Nc1cccc(OC(F)F)c1)c1ccccn1
t1/2 (Liver microsome): 5.2 min | Peff [3]: 214 ×10⁻⁶ cm/s

COc1cc(NC(=O)c2ccccn2)ccc1F
IC50 [1]: 31.6 nM

O=C(Nc1cccc(Cl)c1)c1ccccn1
EC50 [2]: 1200 nM | EC50 [4]: 330 nM

COc1cc(NC(=O)c2ccccn2)ccc1Cl
t1/2 (Liver microsome): 4.9 min | Peff [3]: 256 ×10⁻⁶ cm/s
